The results in this text go back to patent US7812022B2 (GlaxoSmithKline LLC, priority 2004, dated 2010).

Each structure is given as a SMILES string.

The target in test [1] is T1, ErbB2 or EGFR.
T1 construct: enzymes purified from a baculovirus expression system; Reagent production was conducted essentially as described in Brignola, P. S., et al, (2002) J. Biol. Chem. 277(2): 1576-1585
In words: ErbB family substrate phosphorylation enzyme assay (HTRF), Method A or Method B. The test is classed as biochemical. Particulars: Method B: enzyme mix pre-incubated with compound 1 hour at 20° C., started with substrate mix. In outline:
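Baculovirus-expressed EGFR or ErbB2 (0.8 or 10 nM in enzyme mix) phosphorylates biotinylated Peptide C with 20 µM ATP and 0.8 µM peptide (substrate-mix levels), MnCl2, pH 7.5. Reaction ran 90 min at 20 °C with EDTA stop and HTRF anti-phosphotyrosine read. Method A: enzyme added last; Method B: 1 h enzyme–compound preincubation.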

Test [2] relates to BT474 and HN5 tumor cell lines. In words: Celltiter Glo growth inhibition assay (cellular Method B). The format is cell-based. As to conditions: Homo sapiens, BT-474, 72 h, 3 days, read-out: Activity (Method): growth inhibition IC50 class. The method, then:
(§1) Human breast tumor cells (BT474) were cultured in RPMI, (Invitrogen, 22400) containing 10% fetal bovine serum (FBS). Human head and neck tumor cells (HN5) were cultured in low glucose DMEM (Invitrogen, 12320) containing 10% FBS. Human colon tumor cells (Colo205) were cultured in DMEM (Invitrogen, 10564) containing 10% FBS. All cell lines were maintained at 37° C. in a humidified 5% CO2, 95% air incubator. Cells were harvested using trypsin/EDTA, counted using a haemocytometer, and plated in 30 microliters of the appropriate media described above, at the following densities, in a half area, black-walled, 96-well tissue culture plate (Corning 3882): BT474 3,000 cells/well, HN5 500 cells/well and Colo205 cells, 3,000 cells/well. The next day, compounds were diluted in DMEM containing […] gentamicin, from 10 mM stock solutions in DMSO. 30 microliters/well of these dilutions were added to the 30 microliters/well of media currently on the cell plates. Medium containing 0.6% DMSO was added to control wells. The final concentration of DMSO in all wells was 0.3%. Cells were incubated at 37° C., 5% CO2 for 3 days. Cell biomass was estimated using Celltiter Glo (Promega G7571). Briefly, plates were removed from the incubator and allowed to equilibrate to rt for 30 minutes. 60 microliters of Celltiter Glo reagent were added to each well of the treated cells and plates were shaken on an orbital plate shaker for 2 min. Plates were incubated without shaking for 30 more min and read in a luminometer with an integration time of 0.5 seconds per well. Percent inhibition of cell growth was calculated relative to vehicle treated control wells. Concentration of compound that inhibits 50% of vehicle control cell growth (IC50) was interpolated using nonlinear regression (Levenberg-Marquardt) and the equation, y=Vmax*(1−(x/(K+x)))+Y2, where “K” was equal to the IC50.

Test [3] relates to Colo205 tumor cell lines. Briefly: Celltiter Glo growth inhibition assay (cellular Method B), Colo205. The format is cell-based. Particulars: Homo sapiens, COLO 205, 72 h, 3 days, read-out: Activity (Method): growth inhibition IC50 class. The method, then:
as §1

In the case of `CN1CCc2ccc(Nc3ncc(F)c(-c4c(-c5cccc(NC(=O)c6c(F)cccc6F)c5)nn5ccccc45)n3)cc2C1` [Example 203, 2,6-Difluoro-N-[3-(3-{5-fluoro-2-[(2-methyl-1,2,3,4-tetrahydro-7-isoquinolinyl)amino]-4-pyrimidinyl}pyrazolo[1,5-a]pyridin-2-yl)phenyl]benzamide], the “Activity (Method): pIC50 class against ErbB2 or EGFR” value (shortened to “Activity (Method): pIC50 class”) in test [1] is reported as “+++ (B) (at least one pIC50 measurement of greater than 7 against either ErbB2 or EGFR)”. Further, the IC50 is under 0.1 µM in test [2] and 0.1 to 1 µM in test [3].

For the compound `O=C(Nc1cccc(-c2nn3cccc(F)c3c2-c2ccnc(Nc3cccc(CN4CCCC4)c3)n2)c1)c1c(F)cccc1F` [Example 170, 2,6-Difluoro-N-{3-[4-fluoro-3-(2-{[3-(1-pyrrolidinylmethyl)-phenyl]amino}-4-pyrimidinyl)pyrazolo[1,5-a]pyridin-2-yl]phenyl}benzamide], in test [1], the “Activity (Method): pIC50 class” value is “+++ (B) (at least one pIC50 measurement of greater than 7 against either ErbB2 or EGFR)”. Besides, the IC50 is 0.1 to 1 µM in test [2] and over 1 µM in test [3].

For the compound `Cc1ccc(F)c(C(=O)Nc2cccc(-c3nn4ccccc4c3-c3ccnc(Nc4ccc(OCCN(C)C)c(Cl)c4)n3)c2)c1F.O=C(O)C(F)(F)F` [Example 186, N-[3-(3-{2-[(3-chloro-4-{[2-(dimethylamino)ethyl]oxy}phenyl)-amino]-4-pyrimidinyl}pyrazolo[1,5-a]pyridin-2-yl)phenyl]-2,6-difluoro-3-methylbenzamide-TFA], the “Activity (Method): pIC50 class” value in test [1] was “+++ (B) (at least one pIC50 measurement of greater than 7 against either ErbB2 or EGFR)”. Besides, the IC50 was under 0.1 µM in test [2] and over 1 µM in test [3].

`NCc1cccc(Nc2nccc(-c3c(-c4cccc(NC(=O)c5cc(F)ccc5F)c4)nn4ccccc34)n2)c1` [Example 184, N-{3-[3-(2-{[3-(Aminomethyl)phenyl]amino}-4-pyrimidinyl)pyrazolo[1,5-a]pyridin-2-yl]phenyl}-2,5-difluorobenzamide]: the “Activity (Method): pIC50 class” value in test [1] is reported as “+++ B) (at least one pIC50 measurement of greater than 7 against either ErbB2 or EGFR)”. The values for the 50% inhibitory concentration (IC50) in test [2] and in test [3] were under 0.1 µM and over 1 µM, respectively.

For the compound `CN(C)CCOc1cccc(Nc2nccc(-c3c(-c4ccc(F)c(NC(=O)c5c(F)cccc5F)c4)nn4ccccc34)n2)c1` [Example 182, N-[5-(3-{2-[(3-{[2-(Dimethylamino)ethyl]oxy}phenyl)amino]-4-pyrimidinyl}pyrazolo[1,5-a]pyridin-2-yl)-2-fluorophenyl]-2,6-difluorobenzamide], the “Activity (Method): pIC50 class” value in test [1] is given as “+++ (B) (at least one pIC50 measurement of greater than 7 against either ErbB2 or EGFR)”. Further, the figures for the half-maximal inhibitory concentration (IC50) in test [2] and in test [3] were under 0.1 µM and 0.1 to 1 µM, respectively.

In the case of `CN(C)CCOc1ccc(Nc2nccc(-c3c(-c4cccc(NC(=O)c5c(F)cccc5F)c4)nn4ccccc34)n2)cc1Cl` [Example 128, N-[3-(3-{2-[(3-Chloro-4-{[2-(dimethylamino)ethyl]-oxy}phenyl)amino]-4-pyrimidinyl}pyrazolo[1,5-a]pyridin-2-yl)phenyl]-2,6-difluorobenzamide], the “Activity (Method): pIC50 class” value in test [1] is “+++ (B) (at least one pIC50 measurement of greater than 7 against either ErbB2 or EGFR)”. In addition, the figures for the half-inhibitory concentration (IC50) in test [2] and in test [3] were under 0.1 µM and over 1 µM, respectively.

With `CN(C)CCNCc1cccc(Nc2nccc(-c3c(-c4cccc(NC(=O)c5c(F)cccc5F)c4)nn4ccccc34)n2)c1` [Example 185, N-{3-[3-(2-{[3-({[2-(Dimethylamino)ethyl]amino}methyl)phenyl]-amino}-4-pyrimidinyl)pyrazolo[1,5-a]pyridin-2-yl]phenyl}-2,6-difluorobenzamide], in test [1], the “Activity (Method): pIC50 class” value is “+++ (B) (at least one pIC50 measurement of greater than 7 against either ErbB2 or EGFR)”. Further, the IC50 in test [2] is under 0.1 µM; in test [3], over 1 µM.

`CN(C)c1cccc2c(-c3ccnc(Nc4cccc(F)c4)n3)c(-c3cccc(NC(=O)c4c(F)cccc4F)c3)nn12.O=C(O)C(F)(F)F` [Example 175, N-[3-(7-(Dimethylamino)-3-{2-[(3-fluorophenyl)amino]-4-pyrimidinyl}pyrazolo[1,5-a]pyridin-2-yl)phenyl]-2,6-difluorobenzamide trifluoroacetate]: the “Activity (Method): pIC50 class” value in test [1] was “+++ (B) (at least one pIC50 measurement of greater than 7 against either ErbB2 or EGFR)”. For the same compound, the concentration for half-maximal inhibition (IC50) in test [2] was 0.1 to 1 µM; in test [3], over 1 µM.

Turning to `CS(=O)(=O)CCNCc1cccc(Nc2nccc(-c3c(-c4cccc(NC(=O)c5c(F)cccc5F)c4)nn4ccccc34)n2)c1` [Example 188, 2,6-Difluoro-N-{3-[3-(2-{[3-({[2-(methylsulfonyl)ethyl]amino}-methyl)phenyl]amino}-4-pyrimidinyl)pyrazolo[1,5-a]pyridin-2-yl]phenyl}benzamide], the “Activity (Method): pIC50 class” value in test [1] is reported as “+++ (B) (at least one pIC50 measurement of greater than 7 against either ErbB2 or EGFR)”. Besides, the results for the 50% inhibitory concentration (IC50) in test [2] and in test [3] were under 0.1 µM and over 1 µM, respectively.

Regarding `CN1CCc2ccc(Nc3nccc(-c4c(-c5cccc(NC(=O)c6c(F)cccc6F)c5)nn5cccc(F)c45)n3)cc2C1` [Example 169, 2,6-Difluoro-N-[3-(4-fluoro-3-{2-[(2-methyl-1,2,3,4-tetrahydro-7-isoquinolinyl)amino]-4-pyrimidinyl}pyrazolo[1,5-a]pyridin-2-yl)phenyl]benzamide], the “Activity (Method): pIC50 class” value in test [1] is reported as “+++ (B) (at least one pIC50 measurement of greater than 7 against either ErbB2 or EGFR)”. Besides, the IC50 in test [2] is under 0.1 µM; in test [3], over 1 µM.

On to `CN(C)CCOc1cccc(Nc2nccc(-c3c(-c4cccc(NC(=O)c5c(F)cccc5F)c4)nn4cc(C(F)(F)F)ccc34)n2)c1` [Example 194, N-{3-[3-{2-[(3-{[2-(Dimethylamino)ethyl]oxy}phenyl)amino]-4-pyrimidinyl}-6-(trifluoromethyl)pyrazolo[1,5-a]pyridin-2-yl]phenyl}-2,6-difluorobenzamide], for which the “Activity (Method): pIC50 class” value in test [1] is recorded as “+++ (B) (at least one pIC50 measurement of greater than 7 against either ErbB2 or EGFR)”. The half-maximal inhibitory concentration (IC50) in test [2] was 0.1 to 1 µM; in test [3], over 1 µM.

For the compound `CN(C)C1Cc2ccc(Nc3nccc(-c4c(-c5ccc(F)c(NC(=O)c6c(F)cccc6F)c5)nn5ccccc45)n3)cc2C1.O=C(O)C(F)(F)F` (stereo not drawn) [Example 181, N-{5-[3-(2-{[2-(Dimethylamino)-2,3-dihydro-1H-inden-5-yl]amino}-4-pyrimidinyl)pyrazolo[1,5-a]pyridin-2-yl]-2-fluorophenyl}-2,6-difluorobenzamide], in test [1], the “Activity (Method): pIC50 class” value was “+++ (B) (at least one pIC50 measurement of greater than 7 against either ErbB2 or EGFR)”. The concentration for half-maximal inhibition (IC50) in test [2] is under 0.1 µM; in test [3], 0.1 to 1 µM.

On to `O=C(Nc1cccc(-c2nn3cc(F)ccc3c2-c2ccnc(Nc3cccc(CN4CCCC4)c3)n2)c1)c1c(F)cccc1F` [Example 172, 2,6-Difluoro-N-{3-[6-fluoro-3-(2-{[3-(1-pyrrolidinylmethyl)phenyl]amino}-4-pyrimidinyl)pyrazolo[1,5-a]pyridin-2-yl]phenyl}benzamide], for which the “Activity (Method): pIC50 class” value in test [1] is on record as “+++ (B) (at least one pIC50 measurement of greater than 7 against either ErbB2 or EGFR)”. Further, the concentration for half-maximal inhibition (IC50) in test [2] was under 0.1 µM; in test [3], over 1 µM.

As to `NCc1cccc(Nc2nccc(-c3c(-c4cccc(NC(=O)c5c(F)cccc5F)c4)nn4ccccc34)n2)c1` [Example 180, N-{3-[3-(2-{[3-(Aminomethyl)phenyl]amino}-4-pyrimidinyl)pyrazolo[1,5-a]pyridin-2-yl]phenyl}-2,6-difluorobenzamide], in test [1], the “Activity (Method): pIC50 class” value is recorded as “+++ (B) (at least one pIC50 measurement of greater than 7 against either ErbB2 or EGFR)”. The concentration for half-maximal inhibition (IC50) in test [2] was under 0.1 µM; in test [3], over 1 µM.

On to `CS(=O)(=O)NCCOc1ccc(Nc2nccc(-c3c(-c4cccc(NC(=O)c5c(F)cccc5F)c4)nn4ccccc34)n2)cc1Cl` [Example 163, N-{3-[3-(2-{[3-Chloro-4-({2-[(methylsulfonyl)amino]ethyl}-oxy)phenyl]amino}-4-pyrimidinyl)pyrazolo[1,5-a]pyridin-2-yl]phenyl}-2,6-difluorobenzamide], for which the “Activity (Method): pIC50 class” value in test [1] is “+++ (B) (at least one pIC50 measurement of greater than 7 against either ErbB2 or EGFR)”. The IC50 in test [2] and in test [3] was under 0.1 µM each time.
